Results taken from publication PMC7029851, “Antibacterial activity of novel dual bacterial DNA type II topoisomerase inhibitors” (PLoS ONE, 2020).
≈ marks a conversion by molar mass, not a printed value. Counter-ions that a name gives are not always drawn. Like-named read-outs stand apart in the source and are kept apart here.

Legend:
[1] = system: E. coli clinical isolates (n = 36); test: MIC, multidrug-resistant clinical isolates; type: cell-based, Escherichia coli; settings: E. coli MDR clinical isolates (n = 36)
Description: (§1) The bacterial reference strains used in this study were purchased from ATCC (American Type Culture Collection) via LGC Standards (Middlesex, UK). […] Clinical MDR isolates were provided by Aptuit, the IHMA Europa Sàrl repository (Epalinges, Switzerland) and the Statens Serum Institute (Copenhagen, Denmark).
(§2) MICs were determined by the broth microdilution method (the agar dilution method was used only for N. gonorrhoeae) according to CLSI guidelines.
(§3) The results obtained using clinical isolates are reported as MIC50 and MIC90 values.

[2] = system: E. faecium clinical isolates (n = 12) vanA (6)/vanB (6); test: MIC, multidrug-resistant clinical isolates; type: cell-based; settings: for MIC: read-out: MIC range
Description: as §1, §2, §3

[3] = system: E. faecalis clinical isolates (n = 12) vanA (6)/vanB (6); test: MIC, multidrug-resistant clinical isolates; type: cell-based; settings: for MIC: read-out: MIC range
Description: as §1, §2, §3

[4] = system: A. baumannii clinical isolates (n = 10); test: microbe, parasite or virus in culture; type: cell-based, Acinetobacter baumannii; settings: Acinetobacter baumannii
Description: as §1, §2, §3

[5] = system: C. difficile ATCC 700057; test: MIC, broth microdilution; type: cell-based, Clostridium difficile; settings: Clostridioides difficile, ATCC700057
Description: MICs were determined by the broth microdilution method (the agar dilution method was used only for N. gonorrhoeae) according to CLSI guidelines. […] The MIC values of antibiotics used in clinical practice were interpreted according to the susceptibility interpretive criteria reported in the appropriate CLSI Tables (M100-S25, CLSI, 2015).

[6] = system: C. difficile clinical isolates (n = 21); test: MIC, multidrug-resistant clinical isolates; type: cell-based, Clostridium difficile; settings: Clostridioides difficile; for MIC: read-out: MIC range
Description: as §1, §2, §3

[7] = system: S. aureus clinical isolates (n = 10); test: microbe, parasite or virus in culture; type: cell-based, Staphylococcus aureus
Description: as §1, §2, §3

[8] = Escherichia coli, read-out: MIC50
[9] = Escherichia coli, read-out: MIC90
[10] = E. faecium clinical isolates (n = 12), vanA (6)/vanB (6)
[11] = E. faecalis clinical isolates (n = 12), vanA (6)/vanB (6)

## C[C@H]1COc2c(N3CCN(C)CC3)c(F)cc3c(=O)c(C(=O)O)cn1c23 [levofloxacin]
[1]
  MIC range: 0.03 to 32 µg/mL
[1]; [8]
  MIC50: 4 µg/mL (≈ 11.1 µM)
[1]; [9]
  MIC90: 16 µg/mL (≈ 44.3 µM)

## CC(=O)NC[C@H]1CN(c2ccc(N3CCOCC3)c(F)c2)C(=O)O1 [linezolid, reference compound]
[2]; Enterococcus faecium
  MIC50: 2 µg/mL (≈ 5.93 µM)
  MIC90: 2 µg/mL (≈ 5.93 µM)
  MIC: 2 µg/mL (≈ 5.93 µM)
[3]; Enterococcus faecalis
  MIC50: 2 µg/mL (≈ 5.93 µM)
  MIC90: 2 µg/mL (≈ 5.93 µM)
  MIC: 1 to 2 µg/mL (≈ 2.96 to 5.93 µM)

## C[C@@H](O)[C@H]1C(=O)N2C(C(=O)O)=C(S[C@@H]3CN[C@H](C(=O)N(C)C)C3)[C@H](C)[C@H]12 [meropenem, reference compound]
[4]
  MIC50: 8 µg/mL (≈ 20.9 µM)
  MIC90: ≥ 8 µg/mL

## Cc1ncc([N+](=O)[O-])n1CCO [metronidazole, reference compound]
[5]
  MIC: 0.25 µg/mL (≈ 1.46 µM)
[6]; C. difficile clinical isolates (n = 21), read-out: MIC50
  MIC50: 0.5 µg/mL (≈ 2.92 µM)
[6]; C. difficile clinical isolates (n = 21), read-out: MIC90
  MIC90: 1 µg/mL (≈ 5.84 µM)
[6]; C. difficile clinical isolates (n = 21)
  MIC: 0.25 to 2 µg/mL (≈ 1.46 to 11.7 µM)

## CC1(C)S[C@@H]2[C@H](NC(=O)Cc3ccccc3)C(=O)N2[C@H]1C(=O)O [penicillin, penicillin G potassium, reference compound]
[2]; Enterococcus faecium
  MIC50: > 64 µg/mL
  MIC90: > 64 µg/mL
  MIC: > 64 µg/mL
[3]; Enterococcus faecalis
  MIC50: 4 µg/mL
  MIC90: 8 µg/mL
  MIC: 2 to 16 µg/mL

## CN(C)[C@@H]1C(O)=C(C(N)=O)C(=O)[C@@]2(O)C(O)=C3C(=O)c4c(O)cccc4[C@@](C)(O)[C@H]3C[C@@H]12 [tetracycline, tetracycline hydrochloride]
[1]; [8]
  MIC50: 16 µg/mL
[1]; [9]
  MIC90: > 64 µg/mL

## CN[C@H](CC(C)C)C(=O)N[C@H]1C(=O)N[C@@H](CC(N)=O)C(=O)N[C@H]2C(=O)N[C@H]3C(=O)N[C@H](C(=O)N[C@H](C(=O)O)c4cc(O)cc(O)c4-c4cc3ccc4O)[C@H](O)c3ccc(c(Cl)c3)Oc3cc2cc(c3O[C@@H]2O[C@H](CO)[C@@H](O)[C@H](O)[C@H]2O[C@H]2C[C@](C)(N)[C@H](O)[C@H](C)O2)Oc2ccc(cc2Cl)[C@H]1O [vancomycin, vancomycin hydrochloride, reference compound]
[7]; S. aureus MDR clinical isolates (n = 10)
  MIC range: 1 to 4 µg/mL
[7]; Staphylococcus aureus
  MIC50: 1 µg/mL
  MIC90: 2 µg/mL
[2]; Enterococcus faecium
  MIC50: > 64 µg/mL
  MIC90: > 64 µg/mL
  MIC: > 64 µg/mL
[3]; Enterococcus faecalis
  MIC50: > 64 µg/mL
  MIC90: > 64 µg/mL
[6]
  MIC50: 2 µg/mL
  MIC90: 2 µg/mL
  MIC: 1 to 2 µg/mL

## colistin sulfate
[1]
  MIC50: 0.5 µg/mL
  MIC90: 0.5 µg/mL

## teicoplanin [reference compound]
[2]; [10]
  MIC50: 1 µg/mL
  MIC90: 64 µg/mL
[3]; [11]
  MIC50: >64 µg/mL
  MIC90: >64 µg/mL
